Results as given in patent US8030327B2 (MDS K.K., priority 2004, dated 2011).

Key:
[1] = target: T1, full-length human PLK1 (Homo sapiens, UniProt P53350); assay: Measurement of PLK1 activity (33P-ATP, phosphocellulose filter); type: biochemical; settings: 50 μM substrate peptide, 50 μM ATP, 25° C., 20 minutes, read-out: PLK1 inhibitory activity
T1 construct: a baculovirus expressing full-length human PLK1; GST (glutathione S-transferase) (N, cleaved yes); made in house; host or cells: Spodoptera frugiperda Sf9 insect cells (baculovirus)
T1 sequence (P53350 whole entry): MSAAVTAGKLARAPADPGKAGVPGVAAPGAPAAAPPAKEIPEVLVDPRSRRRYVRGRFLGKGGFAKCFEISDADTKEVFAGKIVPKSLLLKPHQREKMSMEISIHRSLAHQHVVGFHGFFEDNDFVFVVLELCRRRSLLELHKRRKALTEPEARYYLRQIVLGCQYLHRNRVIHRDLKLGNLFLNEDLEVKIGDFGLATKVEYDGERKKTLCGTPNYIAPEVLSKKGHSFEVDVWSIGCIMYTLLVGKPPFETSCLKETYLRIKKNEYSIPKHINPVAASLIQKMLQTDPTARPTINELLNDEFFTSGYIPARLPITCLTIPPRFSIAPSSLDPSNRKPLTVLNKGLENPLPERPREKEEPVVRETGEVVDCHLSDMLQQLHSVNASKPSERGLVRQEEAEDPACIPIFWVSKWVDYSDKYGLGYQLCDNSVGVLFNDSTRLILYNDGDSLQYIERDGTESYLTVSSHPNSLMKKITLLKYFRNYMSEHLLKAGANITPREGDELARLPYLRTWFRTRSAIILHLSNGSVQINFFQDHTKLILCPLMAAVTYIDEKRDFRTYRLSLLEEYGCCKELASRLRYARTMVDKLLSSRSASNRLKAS
Method: First, a baculovirus expressing full-length human PLK1 of which the N terminus is fused with GST (glutathione S-transferase) was prepared, and then the PLK1 transfected into a Spodoptera frugiperda(Sf)9 insect cell was highly expressed as a GST-fused protein. The cells were recovered and suspended in a lysis buffer (50 mM tris-hydrochloric acid buffer (pH 7.4)/150 mM sodium chloride/1 mM EDTA (ethylenediamine tetraacetic acid)/1 mM dithiothreitol/0.1% polyoxyethylene sorbitan monolaurate) to break open cells with a sonicator, and supernatant was recovered after a centrifugation. The supernatant was reacted on glutathione sepharose beads, and then the beads were washed with a lysis buffer. Thereafter, the beads were reacted in a lysis buffer containing Precision Protease to recover supernatant. […]
The reaction was carried out in accordance with the method of Toyoshima-Morimoto et al. [Nature, Vol. 410, 215-220, (2001)]. […] After washing the phosphocellulose filter with 75 mM phosphate buffer, the filter was dried to measure the radioactivity with a liquid scintillation counter. […]

[2] = target: T2, PLK1-T210D (human active type PLK1) (Homo sapiens, UniProt P53350, T210D); assay: Measurement of PLK1-T210D activity (33P-ATP, phosphocellulose filter); type: biochemical; settings: 50 μM substrate peptide, 50 μM ATP, 25° C., 20 minutes, read-out: PLK1-T210D inhibitory activity
T2 construct: a baculovirus expressing full-length human PLK1; GST (glutathione S-transferase) (N); made in house; host or cells: insect cells (baculovirus)
T2 sequence (P53350 whole entry T210D): as the sequence (P53350 whole entry) above, with T210D counted along it
Method: For the measurement of the PLK1 and PLK1-T210D activity, a synthetic peptide (aspartic acid-glutamic acid leucine-methionine-glutamic acid-alanine-serine-phenylalanine-alanine-aspartic acid-glutamine-aspartic acid-alanine-lysine) in which the serine surrounding sequence of the amino acid sequence No. 198 of CDC25C having been reported as the site for PLK1 substrate [EMBO Report, Vol. 3, 341 (2002)] is altered, was used as a substrate.
The volume of the reaction solution was 21.1 μL and the composition of the reaction buffer was 20 mM tris-hydrochloric acid buffer (pH 7.4)/10 mM magnesium chloride/0.5 mM dithiothreitol/1 mM EGTA (ethylene glycol-bis(beta-aminoethylether)-N,N,N′,N′,-tetraacetic acid). Thereto, purified PLK 1, 50 μM of the substrate peptide, 50 μM of non-labeled adenosine triphosphate (ATP), and 1 μCi of [γ-^33P]-labeled ATP (2000 to 4000 Ci/mmole) were added to carry out the reaction at 25° C. for 20 minutes. Then, 10 μL of 350 mM phosphate buffer was added to the reaction system to terminate the reaction. The resultant solution was spotted onto a multi-screen phosphocellulose filter on a 96-well plate. After washing the phosphocellulose filter with 75 mM phosphate buffer, the filter was dried to measure the radioactivity with a liquid scintillation counter. […]

[3] = test system: HeLaS3 cells; assay: PLK1 inhibitory activity at cellular level: M phase arrest by phospho-histone H3 (Ser10) immunofluorescence; type: cell-based, human; settings: HeLaS3 cells synchronized at G1/S; 12 hours after addition; concentration inducing 50% of maximum ratio of cells arrested at M phase
Method: For the measurement of the PLK 1 inhibitory activity of the compound at the cellular level, human uterine cervix cell lines HeLaS3 cells were used. The HeLaS3 cell was obtained from American Type Culture Collection (ATTC), and cultured in a CO2-incubator of saturated steam, in the presence of 5% CO2, by using Dulbecco's Modified Eagle's Medium containing 10% fetal calf serum at 37° C.
It has been reported that PLK 1 plays an important role in various stages of mitotic phase (M-phase) in mammalian cells (Nature Review Molecular Cell Biology (Nat. Rev. Mol. Cell. Biol.), Vol. 5, 429, (2004)). In fact, when the mammalian cells are treated with PLK 1 siRNA to control the expression level, the cell cycle progression is inhibited and thus the cell is arrested at M phase. In addition, when examining the phosphorylation level of serine (10th residue on histone H3) which is thought to be required for a chromosome condensation in M phase, is examined, it is observed that the level is enhanced to a high level. Thus, after treating the cell with the compound according to the invention, the phosphorylation level of histone H3 was examined by the indirect fluorescent antibody technique, the cells arrested at M phase were identified by using the level thereof as an indicator to analyze the ratio of cells arrested at M phase, and then EC50 value of each compound was calculated to evaluate the PLK 1 inhibitory activity at a cellular level.
First, HeLaS3 cells synchronized at the G1/S phase by the double-thymidine method were seeded into a lysine-treated 96-well plate (Falcon Corp.) in the ratio of 8,000 per one well, and allowed to stand still in the above-mentioned CO2 incubator. 4 hours after the seeding, the compound according to the invention, which is diluted in series, was added into each well of the plate, and further allowed to stand still in the CO2 incubator. 12 hours after the addition of the compound according to the invention, the culture medium containing the compound according to the invention in each well of the plate was removed, and then 100 μL of ice-cold 100% methanol (Wako Pure Chemical Industries, Ltd.) was added, to carry out cell fixation for 10 minutes and treatment for increasing the membrane permeability. Subsequently, to the wells in which the methanol was removed, 50 μL of 1% BSA/PBS was added, and then blocking was carried out for 30 minutes. Thereafter, for the primary antibody reaction, 50 μL of 1% BSA/PBS containing a 2.5 mg/mL Anti-phospho Histone H3 (Ser10) antibody (Upstate Corp.) was added, and the plate was left over at room temperature for 90 minutes. After terminating the reaction, each well was once washed with PBS, and for the second antibody reaction, 50 μL of 1% BSA/PBS containing 1.5 mg/mL Cy5-labelled anti-rabbit IgG (H+ L) antibody (Chemicon) and 10 ug/mL DAPI (Sigma) which is a nucleus staining regent, was added to the wells, and further left over at room temperature for 90 minutes. After terminating the reaction, the reaction solution in wells was removed and replaced with 100 μL of PBS, and then fluorescence images were captured by using IN Cell Analyzer 1000 (manufactured by GE Amersham) to analyze the ratio of the cells arrested at M phase (Mitotic index) in each view.

| Structure (SMILES) | IC50 [1] [µM] | IC50 [2] [µM] | EC50 [3] [µM] |
| --- | --- | --- | --- |
| CC(Oc1cc(-c2cnc3ccccn23)sc1C(N)=O)c1ccccc1[N+](=O)[O-] (centres unmarked) [Example 44, 5-imidazo[1,2-a]pyridin-3-yl-3-[1-(2-nitrophenyl)ethoxy]thiophene-2-carboxyamide] | 0.012 | 0.012 | 0.07 |
| C[C@@H](Oc1cc(-c2cnc3ccc(OCCO)cn23)sc1C(N)=O)c1ccccc1Cl [Example 66, 3-[(1R)-1-(2-chlorophenyl)ethoxy]-5-[6-(2-hydroxyethoxy)imidazo[1,2-a]pyridin-3-yl]thiophene-2-carboxyamide] |  |  | 0.36 |
| C[C@@H](Oc1cc(-c2cnc3ccc(CN4CCNCC4)cn23)sc1C(N)=O)c1ccccc1Cl [Example 119, 3-[(1R)-1-(2-chlorophenyl)ethoxy]-5-[6-(piperazin-1-ylmethyl)imidazo[1,2-a]pyridin-3-yl]thiophene-2-carboxyamide] | 0.028 | 0.022 | 0.21 |
| CC(Oc1nc(-c2cnc3ccccn23)sc1C(N)=O)c1ccccc1Cl (centres unmarked) [Example 161] |  |  | 0.49 |
| CC(Oc1cc(-c2cnc3cnccn23)sc1C(N)=O)c1ccccc1Cl (centres unmarked) [Example 163] |  |  | 0.66 |
| C[C@@H](Oc1cc(-c2cnc3ccc(C#N)cn23)sc1C(N)=O)c1ccc(CNC(C)(C)CO)cc1OC(F)F [Example 188, 5-(6-cyanoimidazo[1,2-a]pyridin-3-yl)-3-[(1R)-1-(2-(difluoromethoxy)-4-{[(2-hydroxy-1,1-dimethylethyl)amino]methyl}phenyl)ethoxy]thiophene-2-carboxyamide] |  |  | 0.39 |
| C[C@@H](Oc1nc(-c2cnc3cnc(CS(C)(=O)=O)cn23)sc1C(N)=O)c1ccc(CN(C)C)cc1Cl [Example 236] |  |  | 0.1 |
